Assay results taken from PubChem BioAssay AID330 (DTP/NCI, 2004).
Values joined by “and” are separate entries in the source; they are usually repeats but may differ in a detail not shown here. Equal entries are not always repeated. Toxic doses and inconclusive results are not listed.

System: P388 leukemia ip, CD2F1 mice, survival T/C
Assay: NCI In Vivo Anticancer Drug Screen. Data for tumor model P388 Leukemia (intraperitoneal) in CD2F1 (CDF1) mice
Conditions: endpoint: median survival time, higher = longer survival
Procedure, shortened: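 Mice carrying the transplanted tumor received test compound or vehicle. Survival was recorded in each group, and the value is the treated-group measurement divided by that of the vehicle-treated control group.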

[1] = dose: 50.0 mg/kg/injection, schedule: Q01DX009 (ip), vehicle: saline with Tween-80
[2] = dose: 100.0 mg/kg/injection, schedule: Q01DX009 (ip), vehicle: saline with Tween-80
[3] = dose: 200.0 mg/kg/injection, schedule: Q01DX009 (ip), vehicle: saline with Tween-80

For `CN(c1ccccc1)c1cc(=O)nc2ccccn12`, the T/C (dose: 60.0 mg/kg/injection, schedule: Q01DX005 (ip), vehicle: saline) was 105 % of control, the T/C (dose: 120.0 mg/kg/injection, schedule: Q01DX005 (ip), vehicle: saline) was 98 % of control and the T/C (dose: 240.0 mg/kg/injection, schedule: Q01DX005 (ip), vehicle: saline) was 105 % of control.

`CC1=CCC2C3(C)C=CC(=O)C(C)(C)C3CC3OC(=O)C=C1C32C` (stereo unspecified) was tested, and the T/C (dose: 0.75 mg/kg/injection, schedule: Q01DX009 (ip), vehicle: Klucel (hydroxypropylcellulose) (HPC)) was 102 % of control, the T/C (dose: 1.5 mg/kg/injection, schedule: Q01DX009 (ip), vehicle: Klucel (hydroxypropylcellulose) (HPC)) was 98 % of control and 102 % of control and the T/C (dose: 3.0 mg/kg/injection, schedule: Q01DX009 (ip), vehicle: Klucel (hydroxypropylcellulose) (HPC)) was 101 % of control. The T/C (dose: 6.0 mg/kg/injection, schedule: Q01DX009 (ip), vehicle: Klucel (hydroxypropylcellulose) (HPC)) was 97 % of control, the T/C (dose: 12.0 mg/kg/injection, schedule: Q01DX009 (ip), vehicle: Klucel (hydroxypropylcellulose) (HPC)) was 100 % of control and 97 % of control and the T/C (dose: 24.0 mg/kg/injection, schedule: Q01DX009 (ip), vehicle: Klucel (hydroxypropylcellulose) (HPC)) was 100 % of control.

`N#CC(=O)Nc1ccc(Cl)c(Cl)c1` was tested, and the T/C (dose: 7.5 mg/kg/injection, schedule: Q01DX005 (ip), vehicle: Klucel (hydroxypropylcellulose) (HPC)) was 104 % of control, the T/C (dose: 15.0 mg/kg/injection, schedule: Q01DX005 (ip), vehicle: Klucel (hydroxypropylcellulose) (HPC)) was 99 % of control and the T/C (dose: 30.0 mg/kg/injection, schedule: Q01DX005 (ip), vehicle: Klucel (hydroxypropylcellulose) (HPC)) was 100 % of control.

`CCCCCCCCCCCCOP(=O)(CC(=O)NCc1cc(C(C)(C)C)c(O)c(C(C)(C)C)c1)OCCCCCCCCCCCC` was tested, and the T/C [1] was 92 % of control, the T/C [2] was 92 % of control and the T/C [3] was 90 % of control.

`CCN(CC)CCCOC(=O)N(Cc1ccc(Cl)cc1)C1CC1` was tested, and the T/C (dose: 25.0 mg/kg/injection, schedule: Q01DX009 (ip), vehicle: saline + Tween-80 + alcohol) was 108 % of control, the T/C (dose: 50.0 mg/kg/injection, schedule: Q01DX009 (ip), vehicle: saline + Tween-80 + alcohol) was 108 % of control and the T/C (dose: 100.0 mg/kg/injection, schedule: Q01DX009 (ip), vehicle: saline + Tween-80 + alcohol) was 110 % of control.

With `CN(C)N=Nc1cccc(C(F)(F)F)c1` the T/C (dose: 25.0 mg/kg/injection, schedule: Q01DX008 (ip), vehicle: saline with Tween-80) was 104 % of control, the T/C (dose: 50.0 mg/kg/injection, schedule: Q01DX007 (ip), vehicle: saline) was 120 % of control and the T/C (dose: 50.0 mg/kg/injection, schedule: Q01DX008 (ip), vehicle: saline with Tween-80) was 101 % of control. For the same compound, the T/C (dose: 100.0 mg/kg/injection, schedule: Q01DX008 (ip), vehicle: saline with Tween-80) was 101 % of control.

With `CCOc1ccccc1NC(=O)CC(=O)N1N=C(C)C(N=Nc2ccccc2C(=O)O)C1=O` (stereo unspecified) the T/C (dose: 50.0 mg/kg/injection, schedule: Q01DX005 (ip), vehicle: saline with Tween-80) was 108 % of control, the T/C (dose: 100.0 mg/kg/injection, schedule: Q01DX005 (ip), vehicle: saline with Tween-80) was 104 % of control and the T/C (dose: 200.0 mg/kg/injection, schedule: Q01DX005 (ip), vehicle: saline with Tween-80) was 92 % of control.

For `CCOC(=O)CCC(NC(=O)c1ccc(N(C)CCC(C)=O)cc1)C(=O)OCC` (stereo unspecified), the T/C [1] was 111 % of control, the T/C [2] was 111 % of control and the T/C [3] was 102 % of control. For the same compound, the T/C (dose: 400.0 mg/kg/injection, schedule: Q01DX009 (ip), vehicle: saline with Tween-80) was 97 % of control.

In the case of `C#CCOc1ccccc1O`, the T/C (dose: 100.0 mg/kg/injection, schedule: Q01DX009 (ip), vehicle: saline) is reported as 100 % of control, the T/C (dose: 200.0 mg/kg/injection, schedule: Q01DX009 (ip), vehicle: saline) is reported as 110 % of control and the T/C (dose: 400.0 mg/kg/injection, schedule: Q01DX009 (ip), vehicle: saline) is reported as 115 % of control.

For `CN(Cc1cnc2nc(N)nc(N)c2n1)c1ccc(C(=O)NC(CCC(=O)OCc2cc3c(cc2Cl)OCO3)C(=O)OCc2cc3c(cc2Cl)OCO3)cc1` (stereo unspecified), the T/C (dose: 0.94 mg/kg/injection, schedule: Q01DX005 (ip), vehicle: saline with Tween-80) was 166 % of control, the T/C (dose: 1.87 mg/kg/injection, schedule: Q01DX005 (ip), vehicle: saline with Tween-80) was 184 % of control and 186 % of control and the T/C (dose: 7.5 mg/kg/injection, schedule: Q01DX005 (ip), vehicle: saline with Tween-80) was 99 % of control and 118 % of control.

In the case of `O=NN(CCCl)C(=O)NC1CCC(=O)NC1=O` (stereo unspecified), the T/C (dose: 0.5 mg/kg/injection, schedule: Q04DX003 (ip), vehicle: saline) is reported as 122 % of control, the T/C (dose: 1.0 mg/kg/injection, schedule: Q04DX003 (ip), vehicle: saline) is reported as 154 % of control and the T/C (dose: 2.0 mg/kg/injection, schedule: Q01DX005 (ip), vehicle: saline + alcohol) is reported as 214 % of control. The T/C (dose: 2.0 mg/kg/injection, schedule: Q01DX005 (iv), vehicle: saline + alcohol) was 117 % of control, the T/C (dose: 2.0 mg/kg/injection, schedule: Q04DX003 (ip), vehicle: saline) was 195 % of control and the T/C (dose: 3.13 mg/kg/injection, schedule: Q01DX009 (ip), vehicle: saline with Tween-80) was 118 % of control. For the same compound, the T/C (dose: 4.0 mg/kg/injection, schedule: Q01DX001 (ip), vehicle: saline + alcohol) was 172 % of control, the T/C (dose: 4.0 mg/kg/injection, schedule: Q01DX005 (ip), vehicle: saline + alcohol) was 315 % of control and the T/C (dose: 4.0 mg/kg/injection, schedule: Q01DX005 (iv), vehicle: saline + alcohol) was 205 % of control. For the same compound, the T/C (dose: 4.0 mg/kg/injection, schedule: Q01DX005 (oral), vehicle: saline + alcohol) was 207 % of control, the T/C (dose: 4.0 mg/kg/injection, schedule: Q04DX003 (ip), vehicle: saline with Tween-80) was 272 % of control and the T/C (dose: 4.0 mg/kg/injection, schedule: Q04DX003 (ip), vehicle: saline) was 263 % of control. For the same compound, the T/C (dose: 6.0 mg/kg/injection, schedule: Q04DX003 (ip), vehicle: saline with Tween-80) was 272 % of control, the T/C (dose: 6.25 mg/kg/injection, schedule: Q01DX009 (ip), vehicle: saline with Tween-80) was 109 % of control and the T/C (dose: 8.0 mg/kg/injection, schedule: Q01DX001 (ip), vehicle: saline + alcohol) was 232 % of control. For the same compound, the T/C (dose: 8.0 mg/kg/injection, schedule: Q01DX001 (iv), vehicle: saline + alcohol) was 158 % of control, the T/C (dose: 8.0 mg/kg/injection, schedule: Q01DX005 (iv), vehicle: saline + alcohol) was 252 % of control and the T/C (dose: 8.0 mg/kg/injection, schedule: Q01DX005 (oral), vehicle: saline + alcohol) was 315 % of control. For the same compound, the T/C (dose: 9.0 mg/kg/injection, schedule: Q04DX003 (ip), vehicle: saline with Tween-80) was 272 % of control, the T/C (dose: 12.5 mg/kg/injection, schedule: Q04DX003 (ip), vehicle: saline with Tween-80) was 87 % of control and the T/C (dose: 13.0 mg/kg/injection, schedule: Q01DX001 (ip), vehicle: saline with Tween-80) was 517 % of control. The T/C (dose: 16.0 mg/kg/injection, schedule: Q01DX001 (ip), vehicle: saline + alcohol) was 312 % of control, the T/C (dose: 16.0 mg/kg/injection, schedule: Q01DX001 (iv), vehicle: saline + alcohol) was 203 % of control and the T/C (dose: 16.0 mg/kg/injection, schedule: Q01DX001 (oral), vehicle: saline + alcohol) was 187 % of control. For the same compound, the T/C (dose: 16.0 mg/kg/injection, schedule: Q01DX005 (oral), vehicle: saline + alcohol) was 119 % of control.

In the case of `CC1CC2(OC2C)C(=O)OC2CCN(C)C/C=C(/COC(=O)C1(C)O)C2=O` (stereo unspecified), the T/C (dose: 3.12 mg/kg/injection, schedule: Q01DX009 (ip), vehicle: Klucel (hydroxypropylcellulose) (HPC)) is reported as 105 % of control, the T/C (dose: 6.25 mg/kg/injection, schedule: Q01DX009 (ip), vehicle: Klucel (hydroxypropylcellulose) (HPC)) is reported as 99 % of control and the T/C (dose: 12.5 mg/kg/injection, schedule: Q01DX009 (ip), vehicle: Klucel (hydroxypropylcellulose) (HPC)) is reported as 103 % of control. For the same compound, the T/C (dose: 25.0 mg/kg/injection, schedule: Q01DX009 (ip), vehicle: Klucel (hydroxypropylcellulose) (HPC)) was 99 % of control, the T/C (dose: 40.0 mg/kg/injection, schedule: Q01DX009 (ip), vehicle: Klucel (hydroxypropylcellulose) (HPC)) was 110 % of control and the T/C (dose: 50.0 mg/kg/injection, schedule: Q04DX002 (ip), vehicle: saline) was 108 % of control. The T/C (dose: 80.0 mg/kg/injection, schedule: Q01DX009 (ip), vehicle: Klucel (hydroxypropylcellulose) (HPC)) was 110 % of control, the T/C (dose: 100.0 mg/kg/injection, schedule: Q04DX002 (ip), vehicle: saline) was 101 % of control and the T/C (dose: 160.0 mg/kg/injection, schedule: Q01DX009 (ip), vehicle: Klucel (hydroxypropylcellulose) (HPC)) was 100 % of control. The T/C (dose: 200.0 mg/kg/injection, schedule: Q04DX002 (ip), vehicle: saline) was 106 % of control.

With `CC1=CCCCC1=O` the T/C (dose: 60.0 mg/kg/injection, schedule: Q01DX005 (ip), vehicle: saline with Tween-80) was 107 % of control, the T/C (dose: 120.0 mg/kg/injection, schedule: Q01DX005 (ip), vehicle: saline with Tween-80) was 106 % of control and the T/C (dose: 240.0 mg/kg/injection, schedule: Q01DX005 (ip), vehicle: saline with Tween-80) was 102 % of control.

`CC1(C)CC(OC(=O)c2c3ccccc3c3ccc4cccc5ccc2c3c54)CC(C)(C)N1O` was tested, and the T/C [1] was 91 % of control, the T/C [2] was 91 % of control and the T/C [3] was 90 % of control.
